Test results published in the CheMixHub viscosity set.
± gives the uncertainty stated by the source.

Test: xn = mol fraction of the nth substance listed

CCOCCO + OCCO
Conditions	viscosity [mPa·s]
293.15 K, 101 kPa, x1 = 0.0582	18.48 ± 0.12
293.15 K, 101 kPa, x1 = 0.0952	16.68 ± 0.11
293.15 K, 101 kPa, x1 = 0.2037	11.81 ± 0.076
293.15 K, 101 kPa, x1 = 0.3098	7.965 ± 0.051
293.15 K, 101 kPa, x1 = 0.4062	5.445 ± 0.036
293.15 K, 101 kPa, x1 = 0.4503	4.568 ± 0.031
293.15 K, 101 kPa, x1 = 0.5003	3.813 ± 0.025
293.15 K, 101 kPa, x1 = 0.5413	3.301 ± 0.022
293.15 K, 101 kPa, x1 = 0.5988	2.777 ± 0.018
293.15 K, 101 kPa, x1 = 0.6952	2.401 ± 0.016
293.15 K, 101 kPa, x1 = 0.8031	2.264 ± 0.015
293.15 K, 101 kPa, x1 = 0.9002	2.143 ± 0.014
293.15 K, 101 kPa, x1 = 0.9508	2.121 ± 0.013
293.15 K, 101.33 kPa, x2 = 0.0923	2.519 ± 0.02
293.15 K, 101.33 kPa, x2 = 0.2349	3.38 ± 0.026
293.15 K, 101.33 kPa, x2 = 0.3267	4.07 ± 0.031
293.15 K, 101.33 kPa, x2 = 0.4103	4.91 ± 0.037
293.15 K, 101.33 kPa, x2 = 0.4957	6.008 ± 0.043
293.15 K, 101.33 kPa, x2 = 0.5486	6.84 ± 0.048
293.15 K, 101.33 kPa, x2 = 0.6451	8.722 ± 0.058
293.15 K, 101.33 kPa, x2 = 0.7319	10.9 ± 0.07
293.15 K, 101.33 kPa, x2 = 0.7782	12.29 ± 0.078
293.15 K, 101.33 kPa, x2 = 0.8336	14.04 ± 0.088
293.15 K, 101.33 kPa, x2 = 0.9075	16.88 ± 0.1
293.15 K, 101.33 kPa, x2 = 0.9556	19.08 ± 0.12
298.15 K, 101 kPa, x1 = 0.0423	15.82 ± 0.1
298.15 K, 101 kPa, x1 = 0.1127	13.26 ± 0.086
298.15 K, 101 kPa, x1 = 0.1983	10.12 ± 0.066
298.15 K, 101 kPa, x1 = 0.2953	7.192 ± 0.047
298.15 K, 101 kPa, x1 = 0.3988	4.883 ± 0.033
298.15 K, 101 kPa, x1 = 0.4532	4.022 ± 0.027
298.15 K, 101 kPa, x1 = 0.5005	3.474 ± 0.023
298.15 K, 101 kPa, x1 = 0.5429	3.085 ± 0.021
298.15 K, 101 kPa, x1 = 0.593	2.739 ± 0.018
298.15 K, 101 kPa, x1 = 0.6905	2.349 ± 0.015
298.15 K, 101 kPa, x1 = 0.8044	2.188 ± 0.014
298.15 K, 101 kPa, x1 = 0.8963	2.021 ± 0.013
298.15 K, 101 kPa, x1 = 0.9496	1.94 ± 0.012
303.15 K, 101 kPa, x1 = 0.0596	12.4 ± 0.082
303.15 K, 101 kPa, x1 = 0.1011	11.29 ± 0.075
303.15 K, 101 kPa, x1 = 0.1976	8.571 ± 0.056
303.15 K, 101 kPa, x1 = 0.3002	5.937 ± 0.04
303.15 K, 101 kPa, x1 = 0.3989	4.122 ± 0.028
303.15 K, 101 kPa, x1 = 0.4504	3.447 ± 0.023
303.15 K, 101 kPa, x1 = 0.4926	2.988 ± 0.02
303.15 K, 101 kPa, x1 = 0.5502	2.554 ± 0.017
303.15 K, 101 kPa, x1 = 0.6034	2.237 ± 0.015
303.15 K, 101 kPa, x1 = 0.7013	1.974 ± 0.013
303.15 K, 101 kPa, x1 = 0.8026	1.954 ± 0.013
303.15 K, 101 kPa, x1 = 0.8923	1.933 ± 0.012
303.15 K, 101 kPa, x1 = 0.9401	1.883 ± 0.012

[Ba+2].[Cl-].[Cl-] + O
viscosity [mPa·s], 101.3 kPa
Conditions	x1 = 0.0009	x1 = 0.0018	x1 = 0.00893	x1 = 0.0125	x1 = 0.0177	x1 = 0.02116	x1 = 0.02631
293.15 K	1.016 ± 0.022	1.027 ± 0.022	1.123 ± 0.024	1.174 ± 0.025	1.261 ± 0.027	1.325 ± 0.028	1.43 ± 0.03
298.15 K	0.9041 ± 0.019	0.9144 ± 0.019	1.005 ± 0.021	1.053 ± 0.022	1.134 ± 0.024	1.194 ± 0.025	1.29 ± 0.027
303.15 K	0.8105 ± 0.017	0.8204 ± 0.017	0.9062 ± 0.019	0.9513 ± 0.02	1.027 ± 0.022	1.082 ± 0.023	1.171 ± 0.025
308.15 K	0.7315 ± 0.015	0.7405 ± 0.016	0.8219 ± 0.017	0.8637 ± 0.018	0.9352 ± 0.02	0.9867 ± 0.021	1.069 ± 0.023
318.15 K	0.6068 ± 0.013	0.6141 ± 0.013	0.688 ± 0.015	0.725 ± 0.015	0.788 ± 0.017	0.8328 ± 0.018	0.9047 ± 0.019

CCOCCO + NC1CCCCC1
308.15 K, 101 kPa
Conditions	viscosity [mPa·s]
x1 = 0.1163	1.345 ± 0.14
x1 = 0.2284	1.366 ± 0.14
x1 = 0.3366	1.391 ± 0.14
x1 = 0.4411	1.419 ± 0.15
x1 = 0.5421	1.437 ± 0.15
x1 = 0.6398	1.457 ± 0.15
x1 = 0.7342	1.459 ± 0.15
x1 = 0.8257	1.455 ± 0.15
x1 = 0.9142	1.45 ± 0.15

CC(C)CCO + CCCCO
298.15 K, 101 kPa
Conditions	viscosity [mPa·s]
x2 = 0.1033	3.62 ± 0.062
x2 = 0.204	3.472 ± 0.058
x2 = 0.2977	3.343 ± 0.054
x2 = 0.4026	3.211 ± 0.051
x2 = 0.5005	3.093 ± 0.047
x2 = 0.6046	2.972 ± 0.044
x2 = 0.6996	2.851 ± 0.041
x2 = 0.8015	2.746 ± 0.038
x2 = 0.9172	2.615 ± 0.035

CC(CC(C)(C)C)CP(=O)(O)CC(C)CC(C)(C)C (stereo unspecified) + C1CCCCC1
298.15 K, 101 kPa
Conditions	viscosity [mPa·s]
x1 = 0.007	0.95 ± 0.011
x1 = 0.0117	0.998 ± 0.012
x1 = 0.015	1.052 ± 0.012
x2 = 0.1098	97.92 ± 1.5
x2 = 0.1822	85 ± 1.2
x2 = 0.3325	59.34 ± 0.68
x2 = 0.505	32.7 ± 0.38
x2 = 0.6519	16.56 ± 0.19
x2 = 0.7568	8.757 ± 0.1
x2 = 0.7617	8.623 ± 0.099
x2 = 0.851	4.302 ± 0.05
x2 = 0.8636	3.779 ± 0.044
x2 = 0.8895	3.032 ± 0.035
x2 = 0.9226	2.188 ± 0.026
x2 = 0.9255	2.102 ± 0.025
x2 = 0.9573	1.489 ± 0.017
x2 = 0.9686	1.301 ± 0.015
